The values below come from patent US9801958B2, “Polymer nanoparticle composite and composition for MRI imaging including same” (THE UNIVERSITY OF TOKYO, priority 2013, dated 2017).

For series [1] the following is noted: mouse, in vivo. An excerpt:
Here, the maximum tolerant dose (MTD) of MnCaP for a mouse is about 1.5 mmol/kg. In this regard, the maximum tolerant dose (MTD) of MnCl2 is about 0.22 mmol/kg, which is about 1/7 the maximum tolerant dose (MTD) of MnCaP. Therefore, the polymer nanoparticle composite of the present invention that uses MnCaP is also extremely good for practical use in MRI contrast in terms of maximum tolerant dose (MTD).

Series [2] in a line: Relaxivity measurement and T1-weighted imaging in solution, 1T MR. The class given is physicochemical. Particulars: 0.1-0.5 mM, distilled water. Here is the method: In order to measure the relaxivity of the produced MnCaP nanoparticle composite and compare the contrast effect with existing MnCl2 alone, a preclinical permanent magnet type 1T (Tesla) MR equipment (Icon™, Bruker-Biospin, Germany) was used to measure the relaxivity and acquire T1-weighted images for comparison. For the measurements, the MnCaP nanoparticle composite at a concentration of 0.1-0.5 mM and MnCl2 at the same concentration were used and measured in PCR sample tubes. Distilled water was used for dilution.
The relaxivity was measured using a proton volume coil (inner diameter 35 mm). As the contrast method, a rapid spin-echo technique adopting inversion pulse (Rapid Acquisition with Relaxation Enhancement, RARE) was employed. […]

For series [3], the system named is Colon26 liver metastatic tumor. Particulars: property in clinical practice; cited from earlier work.

With `[Cl][Mn][Cl]` [MnCl2], in series [1], the “MTD of MnCl2 relative to MTD of MnCaP” value is “about 1/7” and the “maximum tolerant dose (MTD)” value is listed as “about 0.22 mmol/kg”. In addition, the “longitudinal relaxivity r1” value in series [2] fell in the range of 7.30 to 7.58 mM⁻¹ s⁻¹.
For `CCOc1ccc(C[C@@H](CN(CCN(CC(=O)[O-])CC(=O)[O-])CC(=O)[O-])N(CC(=O)[O-])CC(=O)[O-])cc1.[Gd+3].[H+].[H+]` [Gd-EOB-DTPA], in series [3], the “appearance of normal liver region (clinical contrast agent)” value is given as “in white” and the “signal change in liver tumor region (clinical contrast agent)” value is listed as “almost no change”.
